ChEMBL document CHEMBL1201862, “PubChem BioAssay data set” (2004)
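Briefly, cells in 96-well plates were exposed to five compound concentrations for 48 h, and endpoints were estimated by linear interpolation. Here, GI50 denotes the concentration required for 50% inhibition of growth.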 Calls of active or inactive are those of the source. No stated cut-off is given here; in the data, active = GI50 up to about 1.1 µM and inactive = higher.

What was measured:
Assay in all cases: growth of human tumour cells (NCI), 48 h
786-0 = tested on: 786-0
A549 = tested on: A549
ACHN = tested on: ACHN
BT-549 = tested on: BT-549
CAKI-1 = tested on: CAKI-1
CCRF-CEM = tested on: CCRF-CEM
COLO 205 = tested on: COLO 205
DU-145 = tested on: DU-145
EKVX = tested on: EKVX
HCC 2998 = tested on: HCC 2998
HCT-116 = tested on: HCT-116
HCT-15 = tested on: HCT-15
HL-60 = tested on: HL-60
HOP-62 = tested on: HOP-62
HOP-92 = tested on: HOP-92
HT-29 = tested on: HT-29
Hs-578T = tested on: Hs-578T
IGROV-1 = tested on: IGROV-1
K562 = tested on: K562
KM12 = tested on: KM12
LOX IMVI = tested on: LOX IMVI
M14 = tested on: M14
MCF7 = tested on: MCF7
MDA-MB-231 = tested on: MDA-MB-231
MDA-MB-435 = tested on: MDA-MB-435
MDA-N = tested on: MDA-N
MOLT-4 = tested on: MOLT-4
Malme-3M = tested on: Malme-3M
NCI-H226 = tested on: NCI-H226
NCI-H23 = tested on: NCI-H23
NCI-H522 = tested on: NCI-H522
NCI/ADR-RES = tested on: NCI/ADR-RES
OVCAR-3 = tested on: OVCAR-3
OVCAR-4 = tested on: OVCAR-4
OVCAR-5 = tested on: OVCAR-5
OVCAR-8 = tested on: OVCAR-8
PC-3 = tested on: PC-3
RPMI-8226 = tested on: RPMI-8226
SF-268 = tested on: SF-268
SF-295 = tested on: SF-295
SF-539 = tested on: SF-539
SK-MEL-2 = tested on: SK-MEL-2
SK-MEL-5 = tested on: SK-MEL-5
SK-OV-3 = tested on: SK-OV-3
SN12C = tested on: SN12C
SNB-19 = tested on: SNB-19
SNB-75 = tested on: SNB-75
SR = tested on: SR
SW-620 = tested on: SW-620
T47D = tested on: T47D
TK-10 = tested on: TK-10
U-251 = tested on: U-251
UACC-257 = tested on: UACC-257
UACC-62 = tested on: UACC-62
UO-31 = tested on: UO-31

COC1CC(OC2C(C)OC(OC3C(C)OC(OC4C(O)CC(O[C@H]5CC[C@@]6(C)C(=CC[C@]7(O)[C@@H]6C[C@@H](OC(C)=O)[C@@]6(C)[C@]7(O)CC[C@@]6(O)C(C)=O)C5)OC4C)CC3OC)CC2OC)OC(C)C1O (stereo not given in full)
GI50 (786-0): > 12.5 µM (inactive) | GI50 (A549): > 12.5 µM (inactive) | GI50 (ACHN): > 12.5 µM (inactive) | GI50 (BT-549): > 12.5 µM (inactive) | GI50 (CAKI-1): > 12.5 µM (inactive) | GI50 (CCRF-CEM): > 12.5 µM (inactive) | GI50 (COLO 205): > 12.5 µM (inactive) | GI50 (DU-145): > 12.5 µM (inactive) | GI50 (EKVX): > 12.5 µM (inactive) | GI50 (HCC 2998): > 12.5 µM (inactive) | GI50 (HCT-116): > 12.5 µM (inactive) | GI50 (HCT-15): > 12.5 µM | GI50 (HL-60): > 12.5 µM (inactive) | GI50 (HOP-62): > 12.5 µM (inactive) | GI50 (HOP-92): > 12.5 µM (inactive) | GI50 (HT-29): > 12.5 µM (inactive) | GI50 (Hs-578T): > 12.5 µM (inactive) | GI50 (IGROV-1): > 12.5 µM (inactive) | GI50 (K562): > 12.5 µM (inactive) | GI50 (KM12): > 12.5 µM (inactive) | GI50 (LOX IMVI): > 12.5 µM (inactive) | GI50 (M14): > 12.5 µM (inactive) | GI50 (MCF7): > 12.5 µM (inactive) | GI50 (MDA-MB-231): > 12.5 µM (inactive) | GI50 (MDA-MB-435): > 12.5 µM (inactive) | GI50 (MDA-N): > 12.5 µM (inactive) | GI50 (MOLT-4): > 12.5 µM (inactive) | GI50 (Malme-3M): 8.26 µM (inactive) | GI50 (NCI-H226): > 12.5 µM (inactive) | GI50 (NCI-H23): > 12.5 µM (inactive) | GI50 (NCI-H522): > 12.5 µM (inactive) | GI50 (NCI/ADR-RES): > 12.5 µM (inactive) | GI50 (OVCAR-3): > 12.5 µM (inactive) | GI50 (OVCAR-4): > 12.5 µM (inactive) | GI50 (OVCAR-5): > 12.5 µM (inactive) | GI50 (OVCAR-8): > 12.5 µM (inactive) | GI50 (PC-3): > 12.5 µM (inactive) | GI50 (RPMI-8226): > 12.5 µM (inactive) | GI50 (SF-268): > 12.5 µM (inactive) | GI50 (SF-295): > 12.5 µM (inactive) | GI50 (SF-539): > 12.5 µM (inactive) | GI50 (SK-MEL-2): > 12.5 µM (inactive) | GI50 (SK-MEL-5): > 12.5 µM (inactive) | GI50 (SK-OV-3): > 12.5 µM (inactive) | GI50 (SN12C): > 12.5 µM (inactive) | GI50 (SNB-19): > 12.5 µM (inactive) | GI50 (SNB-75): > 12.5 µM (inactive) | GI50 (SR): > 12.5 µM (inactive) | GI50 (SW-620): > 12.5 µM (inactive) | GI50 (T47D): > 12.5 µM (inactive) | GI50 (TK-10): > 12.5 µM (inactive) | GI50 (U-251): > 12.5 µM (inactive) | GI50 (UACC-257): > 12.5 µM (inactive) | GI50 (UACC-62): > 12.5 µM (inactive) | GI50 (UO-31): 5.61 µM (inactive)
